Values of other authors in patent US12138235B2, “Cape-loaded targeted microvesicular cancer drug and method for developing the same” (YEDITEPE UNIVERSITESI, priority 2017, dated 2024).

Experiments:
[1] = tested on: MCF-7, MDA-MB-231 and TNBC breast cancer cell lines; conditions: CAPE 40 μM
breast cancer stem cells = conditions: CAPE 40 μM
[2] = tested on: LNCaP, DU-145 and PC-3 prostate cancer cell lines
[3] = tested on: ME180 cervical cancer cell lines; conditions: CAPE 50 μM
[4] = tested on: TW2.6 oral squamous cell carcinoma cell line; conditions: CAPE 100 μM
[5] = tested on: SK-1 Hep1 liver cancer cell line; conditions: combined treatment of CAPE 30 μg/ml and TRAIL
[6] = rats, prophylactic administration
[7] = rats
[8] = tested on: SH-SY5Y neuroblastoma cell line; conditions: CAPE 4-20 μM

## O=C(/C=C/c1ccc(O)c(O)c1)OCCc1ccccc1 [CAPE, caffeic acid phenethyl ester]
[1]
  cell proliferation, cell cycle arrest, apoptosis, angiogenesis: dose-dependently stops cell proliferation, induces cell cycle arrest and apoptosis, and suppresses angiogenesis
Breast cancer stem cells
  proliferation of breast cancer stem cells: inhibits proliferation of breast cancer stem cells
[2]
  cell proliferation and Akt signaling pathway: dose-dependently inhibits cell proliferation
[3]
  proliferation, cell cycle arrest, apoptosis: prevents proliferation by inducing S and G2/M phase cell cycle arrests and induces apoptosis
[4]
  cell cycle phase populations and apoptosis: decreased G1 phase cell population, increased G2/M phase cell population and induced apoptosis
[5]
  caspase activation, cell death receptors, apoptosis: caspase activation increased, cell death receptors were activated via JNK and p38 signaling pathways and apoptosis was induced
[6]
  damage caused by doxorubicin in kidney, heart and brain tissues: prevented the damage
  liver damage depending on administration of cisplatin and tamoxifen: prevented the damage
[7]
  radiation induced lung injury: decreased radiation induced lung injury
[8]
  effect in SH-SY5Y cells: no effect was observed
